In US12590062B2, “PD-1/PD-L1 inhibitors” (Gilead Sciences, Inc., priority 2017, dated 2026):

Key:
PD-1/PD-L1 = PD-1/PD-L1 (Homo sapiens, UniProt Q9NZQ7); experiment: PD-1/PD-L1 biochemical protein-protein interaction assay (ALPHA); type: binding; details: 0.3 nM His tagged PD-L1, 2.5 nM biotinylated Fc-PD-1, 60 minutes at 25° C., read-out: IC50 PD-L1-PD-1 Alpha IC50-mono PD-L1-fcP-D1
Protocol: Biological Activity PD-1/PD-L1 & CTLA/CD80 Biochemical Protein-Protein Interaction Assay
Compounds were tested in biochemical protein-protein interaction assays to determine if they can specifically block the interaction between the extracellular domains of PD-1/PD-L1 or CTLA/CD80. Binding of the protein pairs is measured using a bead based Amplified Luminescent Proximity Homogeneous Assay (ALPHA) platform. Binding of each protein pair results in proximity of the donor and acceptor beads which leads to an increase in ALPHA signal. Disruption of the protein-protein interaction with a test compound results in a decrease in ALPHA signal. Assays are performed in 25 mM Hepes (pH 7.4), 150 mM NaCl, 3.4 mM EDTA, 0.005% Tween 20, and 0.01% BSA. Final protein concentration in the assays were 0.3 nM (His tagged PD-L1), 2.5 nM (biotinylated Fc-PD-1), 1 nM (His tagged CTLA4) and 1 nM (biotinylated CD80). After an assay reaction time of 60 minutes at 25° C., binding was measured with addition of 20 μg/mL ALPHA assay acceptor beads (anti-His coated) and […] ALPHA assay donor beads (streptavidin coated). IC50 values were calculated from the fit of the dose-response curves to a four-parameter equation. Representative data are shown below in Table 1.

PD-1/PD-L1 interaction = target: T1, PD-1/PD-L1 interaction (Homo sapiens, UniProt Q9NZQ7); experiment: PD-1/PD-L1 NFAT reporter co-culture assay; type: cell-based; details: Jurkat PD-1 NFAT-luciferase cells co-cultured with aAPC-PD-L1 CHO cells, 6 hrs at 37° C.; read-out: EC50 NFAT Luciferase
T1 construct: expressed in transfected cells; host or cells: CHO cells (aAPC-PD-L1) co-cultured with Jurkat cells overexpressing PD-1 and an NFAT-luciferase reporter
Summary of the method: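 First, CHO cells displaying anti-CD3 antibody and PD-L1 were plated overnight. Next, compound-treated PD-1 Jurkat NFAT-luciferase reporter cells in 2% FBS RPMI were added for 6 h at 37 °C. Finally, ONE-Glo luminescence was read and EC50 values fitted with a four-parameter equation.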

T1 sequence (Q9NZQ7 19-290): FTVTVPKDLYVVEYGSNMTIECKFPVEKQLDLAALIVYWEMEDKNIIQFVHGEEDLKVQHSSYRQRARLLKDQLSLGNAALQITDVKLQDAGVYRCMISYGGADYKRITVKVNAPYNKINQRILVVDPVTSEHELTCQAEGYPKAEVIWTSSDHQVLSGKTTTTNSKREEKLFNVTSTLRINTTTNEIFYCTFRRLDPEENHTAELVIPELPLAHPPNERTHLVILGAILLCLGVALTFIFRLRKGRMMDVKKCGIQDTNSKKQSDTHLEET
Sequence of PD-1/PD-L1 (Q9NZQ7 19-238 limits assumed): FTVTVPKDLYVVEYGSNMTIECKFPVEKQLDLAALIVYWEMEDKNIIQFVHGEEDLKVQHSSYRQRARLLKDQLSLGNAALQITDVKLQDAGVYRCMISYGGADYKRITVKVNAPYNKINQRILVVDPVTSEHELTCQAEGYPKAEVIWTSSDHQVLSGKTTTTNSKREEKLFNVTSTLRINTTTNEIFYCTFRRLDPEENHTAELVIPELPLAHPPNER

| IC50 (PD-1/PD-L1) [nM] | EC50 (PD-1/PD-L1 interaction) [nM] | Compound |
| --- | --- | --- |
| 20.9 | 3760 | N#Cc1cncc(COc2cc(OCc3cccc(-c4cccc(COc5cc(OCc6cncc(C#N)c6)c(CNCCO)cc5Cl)c4)c3)c(Cl)cc2CNCCO)c1 [Example 25, 5,5′-((((([1,1′-biphenyl]-3,3′-diylbis(methylene))bis(oxy))bis(4-chloro-6-(((2-hydroxyethyl)amino)methyl)-3,1-phenylene))bis(oxy))bis(methylene))dinicotinonitrile] |
| 3.2 | 7060 | Cc1c(COc2ccc(CNC[C@@H](O)CC(=O)O)c(OCc3cc(C#N)ccc3F)c2)cccc1-c1cccc(COc2ccc(CNC[C@@H](O)CC(=O)O)c(OCc3cc(C#N)ccc3F)c2)c1C [Example 265, (3S,3′S)-4,4′-((((((2,2′-dimethyl-[1,1′-biphenyl]-3,3′-diyl)bis(methylene))bis(oxy))bis(2-((5-cyano-2-fluorobenzyl)oxy)-4,1-phenylene))bis(methylene))bis(azanediyl))bis(3-hydroxybutanoic acid)] |
| 8 | 2510 | COc1nc(OCc2cccc(-c3cccc(COc4ccc(CNCCO)c(OC)n4)c3C#N)c2C)ccc1CNCCO [Example 72, 3,3′-bis(((5-(((2-hydroxyethyl)amino)methyl)-6-methoxypyridin-2-yl)oxy)methyl)-2′-methyl-[1,1′-biphenyl]-2-carbonitrile] |
| 0.051 | 114 | Cc1c(-c2ccc(OCCNC[C@@H](O)CC(=O)O)cc2)cccc1-c1cccc2c1CC[C@@H]2Oc1nc(OCCCC#N)c(CNC[C@@H](O)CC(=O)O)cc1Br [Example 327, (S)-4-((2-((3′-((S)-1-((3-bromo-5-((((S)-3-carboxy-2-hydroxypropyl)amino)methyl)-6-(3-cyanopropoxy)pyridin-2-yl)oxy)-2,3-dihydro-1H-inden-4-yl)-2′-methyl-[1,1′-biphenyl]-4-yl)oxy)ethyl)amino)-3-hydroxybutanoic acid] |
| 0.064 | 95 | Cc1c(-c2ccc(OCCNC[C@@H](O)CC(=O)O)cc2)cccc1-c1cccc2c1CC[C@@H]2Oc1nc(OCc2cncc(C#N)c2)c(CNC[C@@H](O)CC(=O)O)cc1Cl [Example 675] |
| 10.6 | 902 | CC(=O)NCCNCc1cc(Cl)c(OCc2cccc(-c3cccc(COc4cc(OCc5cncc(C#N)c5)c(CNCCNC(C)=O)cc4Cl)c3C)c2C)cc1OCc1cncc(C#N)c1 [Example 70, N,N′-(((((((2,2′-dimethyl-[1,1′-biphenyl]-3,3′-diyl)bis(methylene))bis(oxy))bis(5-chloro-2-((5-cyanopyridin-3-yl)methoxy)-4,1-phenylene))bis(methylene))bis(azanediyl))bis(ethane-2,1-diyl))diacetamide] |
| 2.8 | 310 | Cc1c(COc2cc(OCc3cncc(C#N)c3)c(CNC[C@@H](O)C(=O)O)cc2Cl)cccc1-c1cccc(COc2cc(OCc3cncc(C#N)c3)c(CNC[C@@H](O)C(=O)O)cc2Cl)c1C [Example 161, (2R,2′R)-3,3′-((((((2,2′-dimethyl-[1,1′-biphenyl]-3,3′-diyl)bis(methylene))bis(oxy))bis(5-chloro-2-((5-cyanopyridin-3-yl)methoxy)-4,1-phenylene))bis(methylene))bis(azanediyl))bis(2-hydroxypropanoic acid)] |
| 0.051 | 84 | Cc1c(COc2nc(OCc3cncc(C#N)c3)c(CNC[C@@H](O)CC(=O)O)cc2Br)cccc1-c1cccc(-c2ccc(OCCNC[C@@H](O)CC(=O)O)cc2)c1C [Example 385, (S)-4-((2-((3″-(((3-bromo-5-((((S)-3-carboxy-2-hydroxypropyl)amino)methyl)-6-((5-cyanopyridin-3-yl)methoxy)pyridin-2-yl)oxy)methyl)-2′,2″-dimethyl-[1,1′:3′,1″-terphenyl]-4-yl)oxy)ethyl)amino)-3-hydroxybutanoic acid] |
| 0.585 | 120 | CS(=O)(=O)c1cncc(COc2nc(O[C@H]3CCc4c(-c5cccc6c5CC[C@@H]6Oc5nc(OCc6cncc(S(C)(=O)=O)c6)c(CN6C[C@@H](O)CC6=O)cc5Cl)cccc43)c(Cl)cc2CNC[C@@H](O)CC(=O)O)c1 [Example 693] |
